Consider one compound from US11666600B2, “Methods for culturing and/or differentiating hematopoietic stem cells into progenitors and uses thereof” (HEMA-QUEBEC, priority 2015, dated 2023).

Assay [1] concerns Human CB CD34+-enriched cells. The experiment in a line: Culture of CB CD34+-enriched cells in erythroid differentiation medium. It counts as cell-based. Conditions: 14 days. The procedure:
Human cord blood (CB) was collected after obtaining written informed consent from donors, following our institutional Research Ethics Committee guidelines. Mononuclear cells (MNCs) were first separated over a Ficoll-Hypaque™ density gradient (GE Healthcare), then cryopreserved at −180° C. in Cryostor CS10™ medium ([…] Technologies). Thawed MNCs from six to eight CB were pooled before CD34 isolation. CB CD34+ cells were enriched by positive selection using the EasySep™ CD34 enrichment kit, according to the manufacturer's instructions ([…] Technologies).
Human CB CD34+-enriched cells (purity≥90%) were seeded in 24-well plates at 100 000 cells/mL in expansion medium consisting of Eave's basal medium (Iscove's modified Dulbecco's medium (IMDM), 20% BIT ([…] bovine serum albumin, 10 μg/mL bovine pancreatic insulin, 200 μg/mL human transferrin; […] Technologies), 0.1 mg/mL low-density lipoprotein ([…] Technologies), 50 μM 2-mercaptoethanol) supplemented with 20 ng/mL SCF (Peprotech) and 2 U/mL erythropoietin (EPO; Feldan Therapeutics). Cultures were maintained in a humidified atmosphere with 5% CO2 at 37° C. or 39° C., as indicated in the Examples. Cells were diluted at 300 000 cells/mL with fresh medium every 3 to 4 days.
(§1) Cellular counts and viability were determined by adding Solution 18 (Acridine Orange and DAPI solution, ChemomMetec) and using NucleoCounter™ NC-250 for detection (ChemomMetec).
For cells expanded in conditions favoring differentiation towards the erythroid lineage, surface markers were detected using the following antibodies: CD34-FITC, CD71-APC and CD235-PE. All antibodies were purchased from BD Biosciences, except for CD34-FITC which was purchased from Immunotech. 7AAD was used as a viability dye. All samples were analyzed on an Accuri™ C6 flow cytometer (BD Biosciences), and raw data were analyzed with FCS Express 5 Flow Research Edition software from at least 15 000 viable cell events acquired for each sample.
(§2) Cellular counts and viability were determined as described in Example 6.5.

The test system of assay [2] is Human bone marrow CD34+ cells. The experiment in a line: Expansion of CD34+/CD41+ megakaryocytic progenitors from bone marrow CD34+ cells. It counts as cell-based. Conditions: 39° C. + PIC 35 nM; 14 days; SFEM + BS1; FIG. 6. The procedure:
Human bone marrow and G-CSF-mobilized peripheral blood CD34+ cells were purchased from AllCells.
Human CD34+-enriched cells (purity 90%) were seeded in 24-well plates at 100 000 cells/mL in expansion medium consisting of either (1) StemSpan™ ACF (ACF; […] Technologies) supplemented with the OMPC cytokine cocktail (Robert et al., 2011), or (2) StemSpan™ SFEM ([…] Technologies) supplemented with the BS1 megakaryocyte expansion and differentiation cocktail (Cortin et al., 2005). OMPC consists of 35 ng/mL thrombopoietin (TPO; Feldan Therapeutics), 10 ng/mL stem cell factor (SCF; Peprotech), and 11 ng/mL human FMS-like tyrosine kinase 3 ligand (FLT3, Peprotech). […]
as §1
For cells expanded in conditions favoring differentiation towards the MK lineage, surface markers were detected using the following antibodies: CD34-FITC, CD41a-APC and CD42b-PE. […] All samples were analyzed on an Accuri™ C6 flow cytometer (BD Biosciences), and raw data were analyzed with FCS Express 5 Flow Research Edition software from at least 15 000 viable cell events acquired for each sample. […]
as §2

With `Cl.Cn1nnc(-c2ccc3c(c2)[nH]c2nc(Cc4ccccc4)nc(N[C@H]4CC[C@H](N)CC4)c23)n1` [PIC, (1r,4r)-N1-(2-benzyl-7-(2-methyl-2H-tetrazol-5-yl)-9H-pyrimido[4,5-b]indol-4-yl)cyclohexane-1,4-diamine hydrochloride], the “mild hyperthermia and PIC on expansion of CB CD34+ cells” value in assay [1] (39° C. + PIC 35 nM, erythroid differentiation medium, FIG. 12) is “additive effect”. Further, the “mild hyperthermia and PIC on expansion of CB CD34+/CD71+ cells (erythroid progenitors)” value in assay [1] (39° C. + PIC 35 nM, erythroid differentiation medium, FIG. 13) is listed as “additive effect”. For the same compound, the “effect of addition of PIC on expansion of CD71+ erythroid precursors” value in assay [1] (PIC 35 nM, 37° C. and 39° C., FIG. 10) is “decrease”. Further, the “effect of addition of PIC on total cell expansion” value in assay [1] (PIC 35 nM, 37° C. and 39° C., FIG. 11) is listed as “decrease”. The “combined use of mild hyperthermia and PIC on expansion of CD34+/CD41+ cells” value in assay [2] is “synergistic effect”.
